Reference: the kinase profiling compilation of Christmann-Franck et al. (2016)

Columns and labels:
Test in all cases: radiometric filter-binding kinase assay
[1] = biological target: AURKB (human) (UniProt Q96GD4)
[2] = biological target: CDK2 CCNA2 (human) (UniProt P20248+P24941)
[3] = biological target: CHEK2 (human) (UniProt O96017)
[4] = biological target: CSK (human) (UniProt P41240)
[5] = biological target: CSNK2A1 (human) (UniProt P68400)
[6] = biological target: DAPK1 (human) (UniProt P53355)
[7] = biological target: EEF2K (human) (UniProt O00418)
[8] = biological target: EPHB3 (human) (UniProt P54753)
[9] = biological target: ERBB4 (human) (UniProt Q15303)
[10] = biological target: FGFR1 (human) (UniProt P11362)
[11] = biological target: GSK3B (human) (UniProt P49841)
[12] = biological target: IKBKB (human) (UniProt O14920)
[13] = biological target: INSRR (human) (UniProt P14616)
[14] = test system: LCK (mouse); details: accession and sequence are those of the human protein
[15] = biological target: MAP2K2 (human) (UniProt P36507)
[16] = biological target: MAP3K9 (human) (UniProt P80192)
[17] = biological target: MAPK1 (human) (UniProt P28482)
[18] = biological target: MAPK13 (human) (UniProt O15264)
[19] = biological target: MAPKAPK3 (human) (UniProt Q16644)
[20] = biological target: MARK4 (human) (UniProt Q96L34)
[21] = biological target: MELK (human) (UniProt Q14680)
[22] = biological target: MINK1 (human) (UniProt Q8N4C8)
[23] = biological target: MKNK1 (human) (UniProt Q9BUB5)
[24] = biological target: MKNK2 (human) (UniProt Q9HBH9)
[25] = biological target: MYLK (human) (UniProt Q15746)
[26] = biological target: NTRK1 (human) (UniProt P04629)
[27] = biological target: PHKG1 (human) (UniProt Q16816)
[28] = test system: PRKAA1 or PRKAA2 (rat); details: accession and sequence are those of the human protein
[29] = biological target: PRKACA (human) (UniProt P17612)
[30] = biological target: PRKCZ (human) (UniProt Q05513)
[31] = test system: ROCK2 (rat); details: accession and sequence are those of the human protein
[32] = biological target: RPS6KA1 KD1 KD2 (human) (UniProt Q15418)
[33] = biological target: SRC (human) (UniProt P12931)
[34] = biological target: STK11 CAB39 STRADA (human) (UniProt Q9Y376+Q7RTN6+Q15831)
[35] = biological target: TTK (human) (UniProt P33981)

Sequence of AURKB (human) (Q96GD4 whole entry, looked up): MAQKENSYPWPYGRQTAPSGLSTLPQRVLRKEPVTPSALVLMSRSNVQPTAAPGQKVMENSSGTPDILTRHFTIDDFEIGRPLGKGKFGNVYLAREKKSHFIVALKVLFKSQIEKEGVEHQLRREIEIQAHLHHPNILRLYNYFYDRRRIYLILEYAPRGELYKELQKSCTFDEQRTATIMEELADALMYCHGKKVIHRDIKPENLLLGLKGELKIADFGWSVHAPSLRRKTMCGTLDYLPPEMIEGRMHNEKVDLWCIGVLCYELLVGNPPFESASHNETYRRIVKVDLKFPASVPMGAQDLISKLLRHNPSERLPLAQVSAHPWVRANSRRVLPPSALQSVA
Sequence of PRKCZ (human) (Q05513 whole entry, looked up): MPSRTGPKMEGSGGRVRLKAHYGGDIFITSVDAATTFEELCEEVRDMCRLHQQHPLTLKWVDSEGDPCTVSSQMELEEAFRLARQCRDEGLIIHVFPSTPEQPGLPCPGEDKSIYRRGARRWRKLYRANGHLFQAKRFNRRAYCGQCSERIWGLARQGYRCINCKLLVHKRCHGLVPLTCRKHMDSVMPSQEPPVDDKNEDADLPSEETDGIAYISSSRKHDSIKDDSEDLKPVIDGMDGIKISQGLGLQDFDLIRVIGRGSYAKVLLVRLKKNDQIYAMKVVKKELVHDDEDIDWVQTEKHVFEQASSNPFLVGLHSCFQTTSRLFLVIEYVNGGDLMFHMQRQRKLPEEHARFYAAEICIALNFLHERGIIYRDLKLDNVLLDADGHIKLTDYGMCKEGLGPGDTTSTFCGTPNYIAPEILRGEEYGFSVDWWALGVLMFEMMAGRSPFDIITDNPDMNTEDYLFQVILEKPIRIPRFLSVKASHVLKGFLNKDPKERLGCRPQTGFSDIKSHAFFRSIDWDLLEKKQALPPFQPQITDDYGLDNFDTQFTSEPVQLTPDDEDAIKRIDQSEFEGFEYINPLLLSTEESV
Sequence of MELK (human) (Q14680 whole entry, looked up): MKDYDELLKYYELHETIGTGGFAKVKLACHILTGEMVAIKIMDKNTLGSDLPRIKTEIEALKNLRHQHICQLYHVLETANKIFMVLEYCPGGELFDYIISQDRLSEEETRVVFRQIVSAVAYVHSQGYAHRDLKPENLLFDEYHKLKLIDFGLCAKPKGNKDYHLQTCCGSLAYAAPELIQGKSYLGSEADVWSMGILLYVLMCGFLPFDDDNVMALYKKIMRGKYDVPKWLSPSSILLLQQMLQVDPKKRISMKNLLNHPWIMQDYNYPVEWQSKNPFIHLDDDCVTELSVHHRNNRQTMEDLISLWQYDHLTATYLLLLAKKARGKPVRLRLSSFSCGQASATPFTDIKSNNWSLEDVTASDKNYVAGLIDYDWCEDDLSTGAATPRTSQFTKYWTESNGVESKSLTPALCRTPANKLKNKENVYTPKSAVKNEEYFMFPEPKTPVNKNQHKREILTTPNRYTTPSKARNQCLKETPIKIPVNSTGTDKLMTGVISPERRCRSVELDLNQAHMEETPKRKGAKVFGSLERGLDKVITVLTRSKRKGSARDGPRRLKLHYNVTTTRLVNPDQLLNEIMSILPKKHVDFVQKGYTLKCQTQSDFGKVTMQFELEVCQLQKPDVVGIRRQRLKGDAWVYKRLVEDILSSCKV
Sequence of NTRK1 (human) (P04629 whole entry, looked up): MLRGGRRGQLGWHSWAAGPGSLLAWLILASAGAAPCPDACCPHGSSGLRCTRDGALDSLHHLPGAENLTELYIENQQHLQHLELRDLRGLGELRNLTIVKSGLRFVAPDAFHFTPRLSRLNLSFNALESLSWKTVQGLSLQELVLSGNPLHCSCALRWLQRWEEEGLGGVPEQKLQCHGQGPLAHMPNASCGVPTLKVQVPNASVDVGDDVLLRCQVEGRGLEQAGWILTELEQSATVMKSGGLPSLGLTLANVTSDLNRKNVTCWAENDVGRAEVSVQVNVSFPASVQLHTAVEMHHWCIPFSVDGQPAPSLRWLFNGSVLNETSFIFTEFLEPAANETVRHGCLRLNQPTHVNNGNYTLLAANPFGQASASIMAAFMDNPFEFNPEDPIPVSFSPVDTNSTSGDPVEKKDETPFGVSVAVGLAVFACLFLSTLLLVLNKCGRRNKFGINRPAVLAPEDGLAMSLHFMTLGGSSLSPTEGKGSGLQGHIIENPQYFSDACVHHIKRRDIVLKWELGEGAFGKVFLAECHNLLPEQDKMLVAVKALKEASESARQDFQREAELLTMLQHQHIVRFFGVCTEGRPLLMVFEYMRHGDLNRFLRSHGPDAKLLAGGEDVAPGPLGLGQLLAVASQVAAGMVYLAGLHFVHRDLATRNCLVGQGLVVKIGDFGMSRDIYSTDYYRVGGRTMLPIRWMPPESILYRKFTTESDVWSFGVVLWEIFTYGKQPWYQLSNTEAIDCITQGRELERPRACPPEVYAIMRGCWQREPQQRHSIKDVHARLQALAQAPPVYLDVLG
Sequence of RPS6KA1 KD1 KD2 (human) (Q15418 whole entry, looked up): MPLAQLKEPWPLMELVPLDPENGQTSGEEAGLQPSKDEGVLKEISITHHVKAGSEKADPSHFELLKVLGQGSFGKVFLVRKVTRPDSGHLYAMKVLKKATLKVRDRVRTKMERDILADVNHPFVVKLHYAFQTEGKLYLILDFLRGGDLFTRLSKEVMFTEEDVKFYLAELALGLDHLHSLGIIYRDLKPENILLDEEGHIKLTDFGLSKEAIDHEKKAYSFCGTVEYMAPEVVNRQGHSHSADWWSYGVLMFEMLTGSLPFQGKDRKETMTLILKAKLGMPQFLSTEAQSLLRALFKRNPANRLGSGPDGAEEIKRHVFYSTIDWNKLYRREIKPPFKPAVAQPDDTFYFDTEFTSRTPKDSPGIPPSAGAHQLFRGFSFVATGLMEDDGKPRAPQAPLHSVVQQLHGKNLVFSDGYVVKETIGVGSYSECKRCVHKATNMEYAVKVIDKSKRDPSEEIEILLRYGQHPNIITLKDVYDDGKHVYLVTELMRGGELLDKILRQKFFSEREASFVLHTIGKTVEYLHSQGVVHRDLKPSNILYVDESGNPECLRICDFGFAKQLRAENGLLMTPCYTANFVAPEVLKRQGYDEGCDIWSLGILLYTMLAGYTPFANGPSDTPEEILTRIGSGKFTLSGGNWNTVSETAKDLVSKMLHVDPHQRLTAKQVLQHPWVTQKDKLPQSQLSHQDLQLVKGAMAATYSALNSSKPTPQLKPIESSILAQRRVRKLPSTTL
Sequence of MINK1 (human) (Q8N4C8 whole entry, looked up): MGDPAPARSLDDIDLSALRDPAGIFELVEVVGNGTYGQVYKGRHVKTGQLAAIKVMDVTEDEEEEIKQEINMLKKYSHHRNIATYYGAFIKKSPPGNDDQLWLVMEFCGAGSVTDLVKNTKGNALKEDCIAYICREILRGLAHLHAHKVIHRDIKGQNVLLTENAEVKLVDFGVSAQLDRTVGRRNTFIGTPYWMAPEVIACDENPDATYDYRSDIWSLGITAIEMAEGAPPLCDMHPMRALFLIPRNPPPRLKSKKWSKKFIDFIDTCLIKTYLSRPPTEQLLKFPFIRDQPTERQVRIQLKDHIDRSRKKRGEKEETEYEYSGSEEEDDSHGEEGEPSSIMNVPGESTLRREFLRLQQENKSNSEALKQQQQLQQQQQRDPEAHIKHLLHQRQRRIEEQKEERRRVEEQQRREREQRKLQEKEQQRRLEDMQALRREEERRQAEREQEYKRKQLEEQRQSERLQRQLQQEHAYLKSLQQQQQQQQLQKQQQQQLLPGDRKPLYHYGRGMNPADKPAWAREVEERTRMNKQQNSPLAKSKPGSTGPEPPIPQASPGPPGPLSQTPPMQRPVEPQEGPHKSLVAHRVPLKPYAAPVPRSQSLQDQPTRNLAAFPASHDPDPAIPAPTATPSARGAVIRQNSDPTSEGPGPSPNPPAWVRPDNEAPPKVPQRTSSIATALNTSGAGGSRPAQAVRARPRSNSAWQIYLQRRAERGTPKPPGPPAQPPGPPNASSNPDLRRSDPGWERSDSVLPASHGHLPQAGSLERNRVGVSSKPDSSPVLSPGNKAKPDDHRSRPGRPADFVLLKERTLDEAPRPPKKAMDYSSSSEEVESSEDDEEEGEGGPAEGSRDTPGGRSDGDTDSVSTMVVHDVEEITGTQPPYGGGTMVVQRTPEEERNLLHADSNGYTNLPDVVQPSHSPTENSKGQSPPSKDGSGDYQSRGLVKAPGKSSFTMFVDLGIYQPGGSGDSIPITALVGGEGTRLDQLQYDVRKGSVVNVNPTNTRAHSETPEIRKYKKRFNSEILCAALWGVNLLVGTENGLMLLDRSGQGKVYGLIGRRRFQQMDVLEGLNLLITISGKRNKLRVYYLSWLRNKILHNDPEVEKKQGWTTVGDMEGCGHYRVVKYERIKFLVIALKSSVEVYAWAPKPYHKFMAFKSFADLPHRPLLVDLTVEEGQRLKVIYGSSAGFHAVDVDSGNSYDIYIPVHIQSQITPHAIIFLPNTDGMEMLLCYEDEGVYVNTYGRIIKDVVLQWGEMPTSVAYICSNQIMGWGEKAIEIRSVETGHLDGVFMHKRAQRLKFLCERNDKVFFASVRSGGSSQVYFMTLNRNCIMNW
Sequence of MAPK13 (human) (O15264 whole entry, looked up): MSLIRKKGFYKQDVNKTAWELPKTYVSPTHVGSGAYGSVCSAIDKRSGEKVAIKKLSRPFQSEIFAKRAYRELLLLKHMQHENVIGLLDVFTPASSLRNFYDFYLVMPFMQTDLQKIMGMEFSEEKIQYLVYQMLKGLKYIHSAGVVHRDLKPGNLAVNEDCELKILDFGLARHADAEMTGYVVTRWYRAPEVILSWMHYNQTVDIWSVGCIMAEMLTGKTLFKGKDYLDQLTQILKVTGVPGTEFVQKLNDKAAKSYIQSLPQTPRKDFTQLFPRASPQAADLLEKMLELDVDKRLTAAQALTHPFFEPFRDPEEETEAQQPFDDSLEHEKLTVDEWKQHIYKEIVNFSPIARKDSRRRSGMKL

## O=C(N[C@@H](COc1ccc2[nH]c(=O)[nH]c2c1)c1ccccc1)c1cccn(Cc2ccc(F)c(F)c2)c1=O
[1]; compound 0.1 µM
  residual activity: 105%
[1]; compound 1.0 µM
  residual activity: 104%
[1]; compound 10.0 µM
  residual activity: 64%
[2]; compound 0.1 µM
  residual activity: 90%
[2]; compound 1.0 µM
  residual activity: 91%
[2]; compound 10.0 µM
  residual activity: 95%
[3]; compound 0.1 µM
  residual activity: 102%
[3]; compound 1.0 µM
  residual activity: 106%
[3]; compound 10.0 µM
  residual activity: 100%
[4]; compound 0.1 µM
  residual activity: 109%
[4]; compound 1.0 µM
  residual activity: 98%
[4]; compound 10.0 µM
  residual activity: 101%
[5]; compound 0.1 µM
  residual activity: 111%
[5]; compound 1.0 µM
  residual activity: 103%
[5]; compound 10.0 µM
  residual activity: 107%
[6]; compound 0.1 µM
  residual activity: 106%
[6]; compound 1.0 µM
  residual activity: 113%
[6]; compound 10.0 µM
  residual activity: 91%
[7]; compound 0.1 µM
  residual activity: 95%
[7]; compound 1.0 µM
  residual activity: 103%
[7]; compound 10.0 µM
  residual activity: 107%
[8]; compound 0.1 µM
  residual activity: 114%
[8]; compound 1.0 µM
  residual activity: 119%
[8]; compound 10.0 µM
  residual activity: 113%
[9]; compound 0.1 µM
  residual activity: 102%
[9]; compound 1.0 µM
  residual activity: 100%
[9]; compound 10.0 µM
  residual activity: 98%
[10]; compound 0.1 µM
  residual activity: 96%
[10]; compound 1.0 µM
  residual activity: 97%
[10]; compound 10.0 µM
  residual activity: 75%
[11]; compound 0.1 µM
  residual activity: 97%
[11]; compound 1.0 µM
  residual activity: 96%
[11]; compound 10.0 µM
  residual activity: 64%
[12]; compound 0.1 µM
  residual activity: 102%
[12]; compound 1.0 µM
  residual activity: 99%
[12]; compound 10.0 µM
  residual activity: 99%
[13]; compound 0.1 µM
  residual activity: 101%
[13]; compound 1.0 µM
  residual activity: 114%
[13]; compound 10.0 µM
  residual activity: 105%
[14]; compound 0.1 µM
  residual activity: 109%
[14]; compound 1.0 µM
  residual activity: 101%
[14]; compound 10.0 µM
  residual activity: 91%
[15]; compound 0.1 µM
  residual activity: 121%
[15]; compound 1.0 µM
  residual activity: 124%
[15]; compound 10.0 µM
  residual activity: 135%
[16]; compound 0.1 µM
  residual activity: 119%
[16]; compound 1.0 µM
  residual activity: 102%
[16]; compound 10.0 µM
  residual activity: 50%
[17]; compound 0.1 µM
  residual activity: 102%
[17]; compound 1.0 µM
  residual activity: 100%
[17]; compound 10.0 µM
  residual activity: 101%
[18]; compound 0.1 µM
  residual activity: 91%
[18]; compound 1.0 µM
  residual activity: 97%
[18]; compound 10.0 µM
  residual activity: 94%
[19]; compound 0.1 µM
  residual activity: 116%
[19]; compound 1.0 µM
  residual activity: 109%
[19]; compound 10.0 µM
  residual activity: 74%
[20]; compound 0.1 µM
  residual activity: 150%
[20]; compound 1.0 µM
  residual activity: 143%
[20]; compound 10.0 µM
  residual activity: 83%
[21]; compound 0.1 µM
  residual activity: 97%
[21]; compound 1.0 µM
  residual activity: 110%
[21]; compound 10.0 µM
  residual activity: 99%
[22]; compound 0.1 µM
  residual activity: 92%
[22]; compound 1.0 µM
  residual activity: 100%
[22]; compound 10.0 µM
  residual activity: 87%
[23]; compound 0.1 µM
  residual activity: 106%
[23]; compound 1.0 µM
  residual activity: 99%
[23]; compound 10.0 µM
  residual activity: 99%
[24]; compound 0.1 µM
  residual activity: 117%
[24]; compound 10.0 µM
  residual activity: 112%
[25]; compound 0.1 µM
  residual activity: 97%
[25]; compound 1.0 µM
  residual activity: 97%
[25]; compound 10.0 µM
  residual activity: 89%
[26]; compound 0.1 µM
  residual activity: 113%
[26]; compound 1.0 µM
  residual activity: 98%
[26]; compound 10.0 µM
  residual activity: 78%
[27]; compound 0.1 µM
  residual activity: 100%
[27]; compound 1.0 µM
  residual activity: 117%
[28]; compound 0.1 µM
  residual activity: 97%
[28]; compound 1.0 µM
  residual activity: 99%
[28]; compound 10.0 µM
  residual activity: 99%
[29]; compound 0.1 µM
  residual activity: 105%
[29]; compound 1.0 µM
  residual activity: 112%
[29]; compound 10.0 µM
  residual activity: 111%
[30]; compound 0.1 µM
  residual activity: 104%
[30]; compound 1.0 µM
  residual activity: 106%
[30]; compound 10.0 µM
  residual activity: 88%
[31]; compound 0.1 µM
  residual activity: 105%
[31]; compound 1.0 µM
  residual activity: 112%
[31]; compound 10.0 µM
  residual activity: 108%
[32]; compound 0.1 µM
  residual activity: 95%
[32]; compound 1.0 µM
  residual activity: 93%
[32]; compound 10.0 µM
  residual activity: 114%
[33]; compound 0.1 µM
  residual activity: 103%
[33]; compound 1.0 µM
  residual activity: 100%
[33]; compound 10.0 µM
  residual activity: 75%
[34]; compound 0.1 µM
  residual activity: 102%
[34]; compound 1.0 µM
  residual activity: 100%
[34]; compound 10.0 µM
  residual activity: 93%
[35]; compound 0.1 µM
  residual activity: 99%
[35]; compound 1.0 µM
  residual activity: 100%
[35]; compound 10.0 µM
  residual activity: 95%

## CN(C)C/C=C/C(=O)Nc1cccc(C(=O)Nc2ccc(Nc3nccc(-c4cccnc4)n3)cc2)c1
[1]; compound 0.1 µM
  residual activity: 74%
[1]; compound 1.0 µM
  residual activity: 73%
[2]; compound 0.1 µM
  residual activity: 85%
[2]; compound 1.0 µM
  residual activity: 72%
[3]; compound 0.1 µM
  residual activity: 89%
[3]; compound 1.0 µM
  residual activity: 73%
[4]; compound 1.0 µM
  residual activity: 103%
[5]; compound 0.1 µM
  residual activity: 80%
[5]; compound 1.0 µM
  residual activity: 81%
[6]; compound 0.1 µM
  residual activity: 90%
[6]; compound 1.0 µM
  residual activity: 83%
[7]; compound 0.1 µM
  residual activity: 97%
[7]; compound 1.0 µM
  residual activity: 101%
[8]; compound 0.1 µM
  residual activity: 101%
[9]; compound 1.0 µM
  residual activity: 106%
[10]; compound 0.1 µM
  residual activity: 94%
[10]; compound 1.0 µM
  residual activity: 95%
[11]; compound 0.1 µM
  residual activity: 88%
[11]; compound 1.0 µM
  residual activity: 56%
[12]; compound 0.1 µM
  residual activity: 76%
[12]; compound 1.0 µM
  residual activity: 63%
[13]; compound 0.1 µM
  residual activity: 72%
[13]; compound 1.0 µM
  residual activity: 64%
[14]; compound 0.1 µM
  residual activity: 95%
[14]; compound 1.0 µM
  residual activity: 101%
[15]; compound 0.1 µM
  residual activity: 87%
[15]; compound 1.0 µM
  residual activity: 102%
[16]; compound 0.1 µM
  residual activity: 72%
[16]; compound 1.0 µM
  residual activity: 39%
[17]; compound 0.1 µM
  residual activity: 99%
[17]; compound 1.0 µM
  residual activity: 114%
[18]; compound 0.1 µM
  residual activity: 106%
[18]; compound 1.0 µM
  residual activity: 100%
[19]; compound 0.1 µM
  residual activity: 104%
[19]; compound 1.0 µM
  residual activity: 101%
[20]; compound 0.1 µM
  residual activity: 85%
[20]; compound 1.0 µM
  residual activity: 83%
[21]; compound 0.1 µM
  residual activity: 71%
[21]; compound 1.0 µM
  residual activity: 48%
[22]; compound 0.1 µM
  residual activity: 92%
[22]; compound 1.0 µM
  residual activity: 69%
[23]; compound 0.1 µM
  residual activity: 84%
[24]; compound 0.1 µM
  residual activity: 92%
[25]; compound 0.1 µM
  residual activity: 96%
[25]; compound 1.0 µM
  residual activity: 85%
[26]; compound 1.0 µM
  residual activity: 82%
[27]; compound 0.1 µM
  residual activity: 94%
[27]; compound 1.0 µM
  residual activity: 83%
[28]; compound 0.1 µM
  residual activity: 92%
[28]; compound 1.0 µM
  residual activity: 87%
[29]; compound 0.1 µM
  residual activity: 97%
[29]; compound 1.0 µM
  residual activity: 108%
[30]; compound 0.1 µM
  residual activity: 112%
[30]; compound 1.0 µM
  residual activity: 103%
[31]; compound 0.1 µM
  residual activity: 89%
[31]; compound 1.0 µM
  residual activity: 71%
[33]; compound 0.1 µM
  residual activity: 93%
[33]; compound 1.0 µM
  residual activity: 72%
[34]; compound 0.1 µM
  residual activity: 78%
[34]; compound 1.0 µM
  residual activity: 91%
[35]; compound 0.1 µM
  residual activity: 83%
[35]; compound 1.0 µM
  residual activity: 77%
